What all share (assay type): functional, cell-based
What all share (conditions): Homo sapiens, T-cell

Assay [1] is described as follows: Inhibitory activity, for stimulation of TNF-alpha release in gamma-delta T cells, using a constrained maximum TNF-alpha release of 2700 pg/mL.
Assay [2] can be described thus: pIC50 value for stimulation of TNF-alpha release in gamma-delta T cells, using individual observed maximum TNF-alpha release.
A short description of assay [3]: pIC50 value for stimulation of TNF-alpha release in gamma-delta T cells, using a constrained maximum TNF-alpha release of 2700 pg/mL.
A short description of assay [4]: Inhibitory activity, for stimulation of TNF-alpha release in gamma-delta T cells, using individual observed maximum TNF-alpha release.

The structures appear in SMILES notation.

On to `CCCCCN(C)CCC(O)(P(=O)(O)O)P(=O)(O)O` [IBANDRONIC ACID], for which the IC50 in assay [1] was 31 µM; in assay [2] it was 31.6 µM; in assay [3], 30.9 µM; in assay [4], 31 µM.
In the case of `O=P(O)(O)C(NC1CCCCCC1)P(=O)(O)O` [INCADRONIC ACID], the IC50 was 15 µM in assay [1], 11.5 µM in assay [2], 14.8 µM in assay [3] and 11 µM in assay [4].
For `O=P(O)(O)C(O)(Cc1cnc2ccccn12)P(=O)(O)O` [MINODRONIC ACID] the same measures were 8 µM, 4.07 µM, 7.94 µM and 4.1 µM.
For `O=P(O)(O)C(N1CCCCCC1)P(=O)(O)O` [N-(HEXAMETHYLENEIMINO)METHYLENEBISPHOSPHONIC ACID] the same measures were 13 µM, 11.2 µM, 12.9 µM and 11 µM.
For `NCCCCCC(O)(P(=O)(O)O)P(=O)(O)O` [NERIDRONIC ACID] the same measures were 503 µM, 195 µM, 501 µM and 1.96 µM.
For `CN(C)CCC(O)(P(=O)(O)O)P(=O)(O)O` [OLPADRONIC ACID], the IC50 was 112 µM in assay [1], 46.8 µM in assay [2], 112 µM in assay [3] and 46 µM in assay [4].
Regarding `NCCC(O)(P(=O)(O)O)P(=O)(O)O` [PAMIDRONIC ACID], the IC50 in assay [1] was 941 µM; in assay [2], 61.7 µM; in assay [3], 933 µM; in assay [4], 62 µM.
Turning to `O=P(O)(O)C(O)(Cc1cccnc1)P(=O)(O)O` [RISEDRONIC ACID], the IC50 in assay [1] is 6.2 µM; in assay [2], 6.92 µM; in assay [3] it was 6.17 µM; in assay [4], 6.9 µM.
For `O=P(O)(O)C(N1CCSCC1)P(=O)(O)O` [THIOMORPHOLINOMETHYLENEDIPHOSPHONIC ACID], in that order: 597 µM, 191 µM, 603 µM and 190 µM.

For the origin of these results see ChEMBL document CHEMBL1148380, “Quantitative structure-activity relationships for gammadelta T cell activation by bisphosphonates” (J Med Chem, 2004).
